# Laboratory results from US20240166680A1, “NUCLEOSIDE ANALOG AND USE THEREOF” (SHANGHAI INSTITUTE OF MATERIA MEDICA, CHINESE ACADEMY OF …, priority 2021, published 2024).
# Where two headings read alike, the source gives them in different places.
# Key:
# [1] = Cytotoxicity in MDCK cells (no viral infection); format: cell-based; settings: dog, without viral infection, read-out: H3N2 (MDCK) CC50
# Method: (§1) Determination of the inhibitory activity of compounds on the replication of respiratory syncytial virus (RSV), human coronavirus OC43, influenza A virus, and Zika virus by Cytopathogenic effect (CPE): the experimental cells were inoculated at a certain cell density to 96 well cell culture plates, and cultured overnight in a 5% CO2, 37° C. incubator. The compounds and viruses were added the next day. Depending on the tested virus, the cells were cultured in an incubator for 3-7 days under 5% CO2, 33° C. or 37° C., until 80-95% of the cells in the virus-infected control wells without compound had pathological changes. Cell viability in each well was then detected with CellTiter-Glo or CCK-8. […] The cytotoxicity test method is the same as the corresponding antiviral test method, but without viral infection.
# (§2) The antiviral activity and cytotoxicity of the compound are represented by the inhibition rate (%) of the compound on the virus-induced cellular viral effect and the cell viability (%), respectively. Calculation equations are as follows:
# (§3) Cell viability (%)=(reading value of test well−average value of medium control)/(average value of cell control−average value of medium control)×100;
# (§4) EC50 and CC50 values were calculated by Prism software, and the inhibition curve fitting method was “log (inhibitor) vs. response—Variable slope”.
# influenza A virus (H3N2) = test: Inhibition of influenza virus H3N2 replication by CPE in MDCK; format: cell-based; settings: MDCK cells
# [2] = format: in vivo, cynomolgus monkey; settings: cynomolgus monkeys, single intragastric 0.35 mmol/kg
# Zika virus = test: Inhibition of Zika virus replication by CPE in Huh7; format: cell-based; settings: for inhibition at 5 µM: Huh-7, read-out: Zika (Huh7) Inhibition rate
# [3] = tested on: respiratory syncytial virus (RSV); test: Inhibition of respiratory syncytial virus replication by CPE in HEp-2; format: cell-based; settings: human respiratory syncytial virus, HEp-2, read-out: RSV (HEp-2) EC50
# in vitro = settings: human
# [4] = tested on: 2019 novel coronavirus (SARS-CoV-2); test: Inhibition of SARS-CoV-2 replication in Vero cells (qRT-PCR); format: cell-based; settings: Severe acute respiratory syndrome coronavirus 2, 48 hours, virus copy number in supernatant by qRT-PCR
# [5] = Cytotoxicity in Huh7 cells (no viral infection); format: cell-based; settings: human, without viral infection, read-out: HCoV OC43 (Huh7) CC50
# Method: as §1, §2, §3, §4
# [6] = Cytotoxicity in Vero cells (SARS-CoV-2 test); format: cell-based; settings: African green monkey
# dengue virus (DENV) = test: Dengue virus plaque reduction assay in Vero cells; format: cell-based; settings: read-out: DENV (Vero) Inhibition rate at 5 μM
# Method: Determination of the inhibitory activity of compounds against dengue virus by plaque reduction assay: Vero cells were inoculated into 6-well cell culture plates at a density of 600,000 cells per well, and cultured overnight in a 5% CO2, 37° C. incubator. The compounds and virus (40-50 PFU/well) were added the next day. The cells were cultured in an incubator at 5% CO2 and 37° C. for 2 hours, then the supernatant was aspirated, and the low-melting point agarose culture medium containing the corresponding concentration of the compound was added. The cells were cultured in an incubator at 5% CO2, 33° C. or 37° C. for 6-7 days, until obvious virus plaques could be observed in the virus-infected control wells without compound under the microscope. Cells were fixed with 4% paraformaldehyde and stained with crystal violet. The number of plaques in each well was calculated. Cytotoxicity experiments were performed in parallel with antiviral experiments. Vero cells were inoculated into 96-well cell culture plates at a density of 20,000 cells per well, and cultured overnight in a 5% CO2, 37° C. incubator. The compounds were added the next day (1-5 concentration points, single point). The cells were cultured in an incubator at 5% CO2, 33° C. or 37° C. for 6-7 days. Cell viability in each well was then detected with CCK-8.
# [7] = format: in vivo, rat; settings: SD rats; for AUC(0-t) / AUC(0-∞) / Cmax / T1/2 / Tmax: nucleoside metabolite in plasma; for F % (bioavailability): nucleoside metabolite
# Method: 6 Male SD rats for each compound were divided into 2 groups (gastric administration group and intravenous injection group), 3 rats in each group. The rates were fasted for 12 h before the experiment (the intravenous experiment group was not fasted), had free access to water, and ate uniformly 4 hours after the administration. The dosages of C22 and C23 were 16 mg/kg and 20 mg/kg for intragastric administration, respectively, and the administration vehicle was 5% DMSO+5% solutol+90% saline. The intravenous injection dosages were 4 mg/kg and 5 mg/kg respectively, and the administration vehicle was DMSO/EtOH/PEG300/0.9% NaCl (5/5/40/50, v/v/v/v). 0.2 mL of blood was collected from the jugular vein 5 min, 0.25 h, 0.5 h, 1.0 h, 2.0 h, 4.0 h, 6.0 h, 8.0 h and 24 h after the administration, placed in an EDTA-K2 test tube abd centrifuged at 11,000 rpm for 5 minutes, and the plasma was separated, and stored in a −70° C. refrigerator for testing. The operation was under an ice water bath. The concentration of nucleoside metabolites in plasma was determined by LC-MS-MS, and the pharmacokinetic parameters were calculated.
# [8] = format: in vivo, rat; settings: SD rats
# Method: 6 Male SD rats for each compound were divided into 2 groups (gastric administration group and intravenous injection group), 3 rats in each group. The rats were fasted for 12 h before the experiment (the intravenous experiment group was not fasted), had free access to water, and ate uniformly 4 hours after the administration. […] The dosage of C38 was 10 mg/kg for intragastric administration, 2 mg/kg for intravenous injection, and the administration vehicle was DMSO/EtOH/PEG300/0.9% NaCl (5/5/40/50, v/v/v/v). 0.2 mL of blood was collected from the jugular vein at 5 min (intravenous group only), 0.25 h, 0.5 h, 1.0 h, 2.0 h, 4.0 h, 6.0 h, 8.0 h and 24 h after the administration, placed in an EDTA-K2 test tube and centrifuged at 11,000 rpm for 5 minutes, and the plasma was separated, and stored in a −70° C. refrigerator for testing. The operation was under an ice water bath. The concentration of nucleoside metabolites in plasma was determined by LC-MS-MS, and the pharmacokinetic parameters were calculated.
# [9] = tested on: porcine epidemic diarrhea virus (PEDV); test: Inhibition of PEDV replication in Vero cells by fluorescent quantitative PCR; settings: 36 h, read-out: PEDV (Vero) EC50
# [10] = in monkeys; cited from earlier work
# [11] = nucleoside metabolite in plasma, iv 2 mg/kg
# [12] = nucleoside metabolite in plasma, po 10 mg/kg
smiles,measurement,setting,value
CC(C)C(=O)OC[C@H]1O[C@@H](n2ccc(NO)nc2=O)[C@@H]2OC(=O)O[C@@H]21 [Compound A2],CC50,[1],> 10000 nM
same,EC50,influenza A virus (H3N2),> 10000 nM
CC(C)[C@H](N)C(=O)OC[C@H]1O[C@@H](n2cc/c(=N/O)[nH]c2=O)[C@@H]2OC(=O)O[C@@H]21.Cl [Compound A6],AUC(0-t),[2]; analyte A1,818 ng·h/mL
same,Cmax,[2]; analyte A1,326 ng/mL
same,Tmax,[2]; analyte A1,1.50 h
same,t1/2,[2]; analyte A1,0.91 h
same,AUC(0-t),[2]; nucleoside metabolite NHC,2417 ng·h/mL
same,Cmax,[2]; nucleoside metabolite NHC,1209 ng/mL
same,T1/2,[2]; nucleoside metabolite NHC,0.83 h
same,Tmax,[2]; nucleoside metabolite NHC,1.50 h
"O=c1ccn([C@@H]2O[C@](F)(CO)[C@@H](O)[C@H]2O)c(=O)[nH]1 [Compound B1-N, reference compound]",inhibition at 5 µM,Zika virus,30%
same,CC50,[1],> 10000 nM
same,EC50,influenza A virus (H3N2),< 1000 nM
O=C1O[C@H]2[C@H](n3ccc(=O)[nH]c3=O)O[C@](F)(CO)[C@H]2O1 [Compound B1],EC50,[3],990 nM
same,CC50,[1],> 10000 nM
same,EC50,influenza A virus (H3N2),370 nM
same,CC50,in vitro,> 10000 nM
CC(C)C(=O)OC[C@@]1(F)O[C@@H](n2ccc(=O)[nH]c2=O)[C@@H]2OC(=O)O[C@@H]21 [Compound B2],EC50,[3],> 10000 nM
same,CC50,[1],> 10000 nM
same,EC50,influenza A virus (H3N2),> 10000 nM
same,CC50,in vitro,> 10000 nM
O=C1O[C@H]2[C@H](n3ccc(=O)[nH]c3=O)O[C@](F)(COC(=O)C3CC3)[C@H]2O1 [Compound B4],EC50,[3],1020 nM
same,CC50,[1],> 10000 nM
same,EC50,influenza A virus (H3N2),1380 nM
same,CC50,in vitro,> 10000 nM
CC(C)[C@H](N)C(=O)OC[C@@]1(F)O[C@@H](n2ccc(=O)[nH]c2=O)[C@@H]2OC(=O)O[C@@H]21 [Compound B6],EC50,[3],3460 nM
same,CC50,[1],> 10000 nM
same,EC50,influenza A virus (H3N2),< 500 nM
same,CC50,in vitro,> 10000 nM
CCC(CC)COC(=O)[C@H](C)N[P@](=O)(OC[C@@]1(F)O[C@@H](n2ccc(=O)[nH]c2=O)[C@@H]2OC(=O)O[C@@H]21)Oc1ccccc1 [Compound B14],EC50,[3],1080 nM
same,CC50,in vitro,> 10000 nM
CC(=O)OC[C@@]1(F)O[C@@H](n2ccc(=O)[nH]c2=O)[C@@H]2OC(=O)O[C@@H]21 [Compound B38],EC50,[3],990 nM
same,CC50,[1],> 10000 nM
same,EC50,influenza A virus (H3N2),540 nM
same,CC50,in vitro,> 10000 nM
CCCCCCCCCCCCCCCC(=O)OC[C@@]1(F)O[C@@H](n2ccc(=O)[nH]c2=O)[C@@H]2OC(=O)O[C@@H]21 [Compound B41],EC50,[3],460 nM
same,CC50,[1],> 10000 nM
same,EC50,influenza A virus (H3N2),< 500 nM
same,CC50,in vitro,> 10000 nM
N#C[C@@]1(c2ccc3c(N)ncnn23)O[C@H](CO)[C@H]2OC(=O)O[C@H]21 [Compound C21],EC50,[3],490 nM
same,CC50,in vitro,> 10000 nM
[2H]c1cc([C@]2(C#N)O[C@H](CO)[C@@H](O)[C@H]2O)n2ncnc(N)c12 [Compound C22-0],EC50,[4],460 nM
same,EC50,[3],560 nM
same,CC50,[5],> 10000 nM
same,CC50,[6],> 10000 nM
same,CC50,in vitro,> 10000 nM
same,inhibition at 5 µM,dengue virus (DENV),100%
[2H]c1cc([C@]2(C#N)O[C@H](CO)[C@H]3OC(=O)O[C@H]32)n2ncnc(N)c12 [Compound C22],AUC(0-t),[7]; iv 4 mg/kg,2348 ng·h/mL
same,AUC(0-∞),[7]; iv 4 mg/kg,2398 ng·h/mL
same,Cmax,[7]; iv 4 mg/kg,2883 ng/mL
same,T1/2,[7]; iv 4 mg/kg,1.35 h
same,AUC(0-t),[7]; po 16 mg/kg,7068 ng·h/mL
same,AUC(0-∞),[7]; po 16 mg/kg,7157 ng·h/mL
same,Cmax,[7]; po 16 mg/kg,2217 ng/mL
same,T1/2,[7]; po 16 mg/kg,1.08 h
same,Tmax,[7]; po 16 mg/kg,0.5 h
same,F % (bioavailability),[7]; po 16 mg/kg vs iv 4 mg/kg,75.3%
[2H]c1cc([C@]2(C#N)O[C@H](COC(=O)C(C)C)[C@H]3OC(=O)O[C@H]32)n2ncnc(N)c12 [Compound C23],AUC(0-t),[7]; iv 5 mg/kg,3954 ng·h/mL
same,AUC(0-∞),[7]; iv 5 mg/kg,4024 ng·h/mL
same,Cmax,[7]; iv 5 mg/kg,3903 ng/mL
same,T1/2,[7]; iv 5 mg/kg,5.24 h
same,AUC(0-t),[7]; po 20 mg/kg,11360 ng·h/mL
same,AUC(0-∞),[7]; po 20 mg/kg,11393 ng·h/mL
same,Cmax,[7]; po 20 mg/kg,2933 ng/mL
same,T1/2,[7]; po 20 mg/kg,3.47 h
same,Tmax,[7]; po 20 mg/kg,1.0 h
same,F % (bioavailability),[7]; po 20 mg/kg vs iv 5 mg/kg,71.8%
[2H]c1cc([C@]2(C#N)O[C@H](CO)[C@H]3OC(CC)O[C@H]32)n2ncnc(N)c12 (some centres unmarked) [Compound C38],AUC(0-t),[8]; [11],551 ng·h/mL
same,AUC(0-∞),[8]; [11],586 ng·h/mL
same,Cmax,[8]; [11],217 ng/mL
same,T1/2,[8]; [11],1.9 h
same,AUC(0-t),[8]; [12],2388 ng·h/mL
same,AUC(0-∞),[8]; [12],2454 ng·h/mL
same,Cmax,[8]; [12],586 ng/mL
same,T1/2,[8]; [12],3.1 h
same,Tmax,[8]; [12],0.75 h
same,F % (bioavailability),"[8]; nucleoside metabolite, po 10 mg/kg vs iv 2 mg/kg",87%
"N#C[C@@]1(c2ccc3c(N)ncnn23)O[C@H](CO)[C@@H](O)[C@H]1O [GS-441524, (2R,3R,4S,5R)-2-(4-aminopyrrolo[2,1-F][1,2,4]triazin-7-yl)-3,4-dihydroxy-5-(hydroxymethyl)tetrahydrofuran-2-carbonitrile]",EC50,"Zika virus; Huh-7, read-out: Zika (Huh7) EC50",15000 nM
same,EC50,[4],470 nM
same,EC50,[3],730 nM
same,CC50,[5],> 10000 nM
same,CC50,[6],> 10000 nM
same,EC50,[9],310 nM
same,oral bioavailability,[10],less than 10%
same,CC50,in vitro,> 10000 nM
"O=c1nc(NO)ccn1[C@@H]1O[C@H](CO)[C@@H](O)[C@H]1O [NHC, β-d-N4-hydroxycytidine]",inhibition at 5 µM,Zika virus,66%
same,EC50,[4],300 nM
same,EC50,[3],4600 nM
same,CC50,[6],> 10000 nM
same,EC50,[9],1170 nM
same,oral bioavailability,[10],less than 10%
same,CC50,[1],> 10000 nM
same,EC50,influenza A virus (H3N2),770 nM
same,CC50,in vitro,> 10000 nM
same,inhibition at 5 µM,dengue virus (DENV),40%
